Legend:
[1] = test system: A2780 cells (ovarian cancer); experiment: single dose MTT assay, A2780; format: cell-based; details: 10 μM, 48 h, Mean ± SEM of three independent experiments
From the text: (§1) All of the target compounds 5-(1H-indol-3-yl)-1,3-substituted pyrimido[4,5-d]pyrimidine-2,4,7(1H,3H,8H)-trione derivatives (4a-c) were subjected to a single dose MTT (3-(4,5-dimethylthiazol-2-yl)-2,5-diphenyltetrazolium bromide) assay to evaluate their cytotoxicity (growth-inhibiting activities) against the breast cancer (MCF-7, MDA-MB-231), ovarian cancer (A2780, SKOV-3) and cervical cancer (HELA) cell lines. Cell lines were obtained from ATCC (American Type Culture Collection). Doxorubicin was used as a positive control.
(§2) HELA and MCF-7 cells were seeded at 10000 cells/well, while MDA-MB-231, A2780, and SKOV-3 cells were seeded at 20000 cells/well in 96 well plates to ensure that cells were non-confluent and able to proliferate over the course of the assay period. After 24 h in culture, cells were treated with test compounds 5-(1H-indol-3-yl)-1,3-substituted pyrimido[4,5-d]pyrimidine-2,4,7(1H,3H,8H)-trione derivatives (4a-c) at a single dose of 10 μM concentration and incubated for 48 h. Cells were inspected under the microscope to detect any visible morphological changes. Cells were washed with PBS, and then the cells were treated with 100 μl of 1 mg/ml fresh filtered MTT suspended in a culture medium; the plates were covered with aluminum foil and incubated for 45 min. Cell viability was marked by the conversion of MTT to the dark-blue-colored formazan by mitochondrial dehydrogenases. DMSO was added to dissolve the insoluble purple formazan product, and optical density (OD) was measured by using a spectrophotometer at a wavelength of […]. The assay was performed in the dark as MTT is light-sensitive. Control wells of culture medium only (without cells) were included as blanks for absorbance measurements.
(§3) Cell viability was calculated according to the following formula: % Cell viability=(OD sample-OD blank/OD control-OD blank)×100 where the blank is given by wells without cells (medium only), control is untreated cells (100% viable).

[2] = test system: SKOV3 cells (ovarian cancer); experiment: single dose MTT assay, SKOV3; format: cell-based; details: 10 μM, 48 h, Mean ± SEM of three independent experiments
From the text: as §1, §2, §3

[3] = test system: MDA-MB-231 cells (breast cancer); experiment: single dose MTT assay, MDA-MB-231; format: cell-based; details: 10 μM, 48 h, Mean ± SEM of three independent experiments
From the text: as §1, §2, §3

[4] = test system: MCF7 cells (breast cancer); experiment: single dose MTT assay, MCF7; format: cell-based; details: 10 μM, 48 h, Mean ± SEM of three independent experiments
From the text: as §1, §2, §3

[5] = test system: HeLa cells (cervical cancer); experiment: single dose MTT assay, HeLa; format: cell-based; details: 10 μM, 48 h, Mean ± SEM of three independent experiments
From the text: as §1, §2, §3

Row | melting point | SMILES | Anticancer effect on cancer cell lines A2780 (proliferation percentage) [1] | Anticancer effect on cancer cell lines SKOV3 (proliferation percentage) [2] | Anticancer effect on cancer cell lines MDA-MB-231 (proliferation percentage) [3] | Anticancer effect on cancer cell lines MCF7 (proliferation percentage) [4] | Anticancer effect on cancer cell lines HeLa (proliferation percentage) [5]
1 | 160 to 162 °C | O=c1nc(-c2c[nH]c3ccccc23)c2c(=O)[nH]c(=O)[nH]c2[nH]1 [Compound 4a, 5-(1H-Indol-3-Yl)Pyrimido[4,5-d]Pyrimidine-2,4,7(1H,3H,8H)-Trione] | 78 ± 3.60 | 79 ± 0.92 | 82 ± 1.01 | 98 ± 3.15 | 57 ± 6.13
2 | 180 to 182 °C | O=c1nc(-c2c[nH]c3ccccc23)c2c(=O)[nH]c(=S)[nH]c2[nH]1 [Compound 4b, 4-(1H-Indol-3-Yl)-7-Thioxo-7,8-Dihydropyrimido[4,5-d]Pyrimidine-2,5(1H,6H)-Dione] | 82 ± 4.05 | 69 ± 1.31 | 61 ± 6.00 | 68 ± 4.57 | 59 ± 2.91
3 | 256 to 258 °C | Cn1c(=O)c2c(-c3c[nH]c4ccccc34)nc(=O)[nH]c2n(C)c1=O [Compound 4c, 5-(1H-Indol-3-Yl)-1,3-Dimethylpyrimido[4,5-d]Pyrimidine-2,4,7(1H,3H,8H)-Trione] | 63 ± 1.47 | 57 ± 3.40 | 62 ± 1.35 | 44 ± 3.90 | 19 ± 1.58
